# Assay results as given in patent publication US20240010726A1, “LFA-1 SIGNALLING MEDIATOR FOR USE IN CANCER THERAPY” (Universität Basel, priority 2020, published 2024).
# What was measured:
# [1] = test system: Ramos target cells; test: Co-culture assay with Blinatumomab, caspase-3 activity in Ramos target cells; assay type: cell-based, human; details: PHA-blasts, 3.5 h co-culture; reported therapeutic range 230-620 pg ml^−1; varying Mg^2+
# Method: FIG. 3: Magnesium regulates LFA-1 mediated T cell activation and cytotoxicity as well BiTE- and CAR T-cell functionality. (a) Glycolytic switch of murine WT and LFA-1^−/− CTLs upon injection of anti-CD3/28 Ab in medium containing 1.2 mM Mg^2+ and 0 mM Mg^2+, presented as quantification of summarized data with n=4 mice. (b) Calcium flux in WT and LFA-1^−/− Jurkat T cells stimulated with anti-CD3 Ab in 1.2 mM and 0 mM Mg^2+ medium, respectively. Cells were loaded with Fluo4, and signal intensity as recorded by plate reader, was normalized to unstimulated baseline values. […] Quantified results of n=3 mice with 3 technical replicates each. […] Results are quantified of n=3 mice with 3 technical replicates each. (e) Representative CD11a (LFA-1) surface expression on human naïve and EM CD8 T cells, PHA T cell blasts and REP T cells, assessed by flow cytometry. […] Data is presented as quantified results of n=5 healthy donors (f, g, h), n=3 healthy donors with 2 technical replicates each or n=1 healthy donor with 4 technical replicates (j). […] Data is presented as quantified results of n=1 healthy donor with 4 technical replicates. […] Cytotoxicity is reported as total area under the curve of the fluorescence driven by incorporation of cytotoxic green reagent in dead target cells (green area per μm^2). […]
# [2] = test system: human PHA T cell blasts; test: Glycolytic switch of PHA T cell blasts ± BIRT377; assay type: cell-based; details: ±BIRT377 50 μM
# [3] = test system: human PHA T cell blasts; test: Degranulation of PHA T cell blasts ± BIRT377; assay type: cell-based; details: ±BIRT377 50 μM
# [4] = test system: murine WT and LFA-1^−/− CTLs; test: Degranulation marker CD107a on murine WT and LFA-1−/− CTLs; assay type: cell-based; details: 8 h anti-CD3/anti-CD28 Ab; 1.2 mM Mg^2+ ± BIRT377 50 μM
# [5] = test system: REP T cells; test: FAK phosphorylation and CD107a degranulation of REP T cells co-incubated with T2 target cells; assay type: cell-based, human; details: pulsed T2 target cells; 1.2 mM Mg^2+ ± BIRT377 50 μM
# Method: FIG. 3: Magnesium regulates LFA-1 mediated T cell activation and cytotoxicity as well BiTE- and CAR T-cell functionality. (a) Glycolytic switch of murine WT and LFA-1^−/− CTLs upon injection of anti-CD3/28 Ab in medium containing 1.2 mM Mg^2+ and 0 mM Mg^2+, presented as quantification of summarized data with n=4 mice. (b) Calcium flux in WT and LFA-1^−/− Jurkat T cells stimulated with anti-CD3 Ab in 1.2 mM and 0 mM Mg^2+ medium, respectively. Cells were loaded with Fluo4, and signal intensity as recorded by plate reader, was normalized to unstimulated baseline values. […] Quantified results of n=3 mice with 3 technical replicates each. (d) Caspase-3 activity in EL4 target cells after co-culture with murine WT and LFA-1^−/− CTLs under the conditions as in (c) for 4 hours, in presence of 10 μg/ml PHA. The effector to target cell ratio was 3:1. Results are quantified of n=3 mice with 3 technical replicates each. (e) Representative CD11a (LFA-1) surface expression on human naïve and EM CD8 T cells, PHA T cell blasts and REP T cells, assessed by flow cytometry. Flow cytometry-based assessment of inactivate LFA-1 with bent conformation (f), extended conformation with β2 leg extension (g), LFA-1 with open head-piece (h), phosphorylation of FAK, expression of degranulation marker CD107a (j) on REP T cells after co-incubation with T2 target cells (pulsed with 10^−8 M 9c peptide) in same condition as in (c). The effector to target cell ratio was 1:1. Data is presented as quantified results of n=5 healthy donors (f, g, h), n=3 healthy donors with 2 technical replicates each or n=1 healthy donor with 4 technical replicates (j). […] Data is presented as quantified results of n=1 healthy donor with 4 technical replicates. […] Cytotoxicity is reported as total area under the curve of the fluorescence driven by incorporation of cytotoxic green reagent in dead target cells (green area per μm^2). […] (p) Abundance of IFNγ in cell culture supernatants corresponding to the conditions depicted in (o) at 24 hours was determined by ELISA (n=8, 3 independent experiments). […]
# [6] = test system: T2 target cells; assay type: cell-based, human; details: 45 min; E:T 1:1; 1.2 mM Mg^2+ ± BIRT377 50 μM
Substance,Blinatumomab-mediated cytotoxicity (caspase-3 activity in Ramos target cells) [1],Glycolytic switch of PHA T cell blasts [2],Degranulation of PHA T cell blasts [3],CD107a degranulation of LFA-1^−/− CTLs [4],CD107a degranulation of WT CTLs [4],Degranulation (CD107a) of REP T cells [5],Target cell killing by REP T cells (caspase-3 activity in T2 target cells) [6]
Blinatumomab: CD3/CD19 bispecific antibody engaging T cells to bind and eliminate CD19-positive cells,strongly dependent on availability of Mg^2+,–,–,–,–,–,–
BIRT377 [reference compound],–,impaired glycolytic switching,decreased degranulation,unaffected,reduced CTL degranulation,reduced degranulation,reduced
